{
  "source": "paper PMC5393024",
  "about": "“Discovery and characterization of natural tropolones as inhibitors of the antibacterial target CapF from Staphylococcus aureus” (Scientific Reports, 2015)",
  "key": {"[1]": {"target": "holo-CapF (reconstituted with Zn^2+) (Staphylococcus aureus, UniProt A0A0H3JP37)", "experiment": "ITC binding to CapF reconstituted with Zn2+ (holo-CapF)", "from_the_text": "Because tropolone and its analogs have been described as metal chelators in proteins, we anticipated that binding of the inhibitor to CapF is governed by the Zn^2+ ion present in the cupin domain[12]. To confirm this hypothesis, we performed two different types of experiments. First, we determined the binding properties of 3-isopropenyl-tropolone to apo-CapF (i.e. Zn^2+-depleted CapF) and to holo-CapF (reconstituted with Zn^2+) by isothermal titration calorimetry (ITC). The stoichiometry is consistent with a 1:1 binding model.\nFigure 3 Binding of 3-isopropenyl-tropolone to CapF requires Zn^2+. CapF (150 μM) reconstituted with Zn^2+ was titrated with 1.65 mM inhibitor in the absence (a) or the presence (b) of 1 mM EDTA. The upper panels correspond to the titration data, and the lower panels to the integrated binding isotherms. (c) Binding competition assay. CapF (1.0 μM) reconstituted with Zn^2+ in the presence of the Zn^2+-sensitive dye FluoZin-3 (1.0 μM) was titrated with 3-isopropenyl-tropolone (λEX = 490 nm; λEM = 520 nm).\nBinding constants and thermodynamic parameters of the interaction between CapF and fragment compounds were determined with an iTC200 instrument (GE Healthcare) at 25 °C. Samples were equilibrated in a buffer composed of 10 mM HEPES (pH 7.4) and 150 mM NaCl supplemented with 5% (v/v) DMSO. CapF at 150–270 μM was titrated with compounds at 0.5–1.65 mM. Analysis of the data was performed with ORIGIN7 using a one-site binding model.\nFigure S8. Binding isotherms of compounds with CapF as determined by ITC. (a) tropone, (b) 2-Cl-tropone, (c) tropolone, (d) 4-isopropyl-tropolone. Concentration of CapF in the cell was 150 µM, except in panel (a) where it was 270 µM. Concentration of compounds was 1.65 mM, except in panel (a) where it was 0.5 mM. Titrations were performed in an iTC200 instrument at 25 °C.\nData analysis was carried out with ORIGIN."}, "[2]": {"target": "T1, CapF lacking the His6-tag (Staphylococcus aureus, UniProt A0A0H3JP37)", "T1 sequence (A0A0H3JP37 1-369)": "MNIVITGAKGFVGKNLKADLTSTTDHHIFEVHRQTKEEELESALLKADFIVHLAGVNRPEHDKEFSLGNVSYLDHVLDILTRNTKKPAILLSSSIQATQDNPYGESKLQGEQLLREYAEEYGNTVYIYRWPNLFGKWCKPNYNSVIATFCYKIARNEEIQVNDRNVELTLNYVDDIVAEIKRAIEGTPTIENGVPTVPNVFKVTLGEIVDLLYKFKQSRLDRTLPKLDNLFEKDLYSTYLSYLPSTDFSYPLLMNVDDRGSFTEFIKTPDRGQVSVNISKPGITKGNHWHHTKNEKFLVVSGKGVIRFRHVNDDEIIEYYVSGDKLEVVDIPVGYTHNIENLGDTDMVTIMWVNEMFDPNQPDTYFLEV", "experiment": "ITC binding to CapF lacking the His6-tag", "procedure": "A control experiment with CapF lacking the His6-tag was carried to rule out the possibility of spurious effects caused by the affinity tag (Supplementary Information Figure S4).\nFigure S4. Binding of 3-isopropyl-tropolone to CapF lacking the His6-tag. Titration of CapF (220 µM) with 2.2 mM inhibitor in a buffer composed of 10 mM HEPES (pH 7.5), 150 mM NaCl, and 5% DMSO at 25 °C. A construct of full-length CapF bearing a cleavable His6-tag was prepared and purified exactly as that of CapF Δ57-70 (see Methods section for the detailed protocol of CapFΔ57-70), except that (i) the dialysis buffer after to reconstitute the enzyme with Zn2+ contained 150 mM NaCl (instead of 50 mM) and 12.5 µM ZnCl2 (instead of 10 µM), and (ii) the buffer of the size exclusion chromatography step contained 10 mM HEPES (instead of 50 mM) and 150 mM NaCl (instead of 50 mM). The values of the thermodynamic parameters […]\nkcal mol-1, and n = 0.92 ± 0.1.\n(1 picture or pasted object on this page, not shown here)"}},
  "data": [
    {"smiles": "C=C(C)c1ccccc(=O)c1O", "note": "[3-isopropenyl-tropolone]", "values": [
      {"measurement": "Kd", "setting": "[1]", "result": "27 ± 12", "unit": "µM"},
      {"measurement": "n (binding stoichiometry)", "setting": "[1]; ITC, 25 °C", "result": "1.2 ± 0.1"},
      {"measurement": "ΔH°", "setting": "[1]; ITC, 25 °C", "result": "-3.4 ± 0.9", "unit": "kcal/mol"},
      {"measurement": "−TΔS°", "setting": "[1]; ITC, 25 °C", "result": "-2.8 ± 1.1", "unit": "kcal/mol"},
      {"measurement": "ligand efficiency (LE = −ΔG/HAC)", "setting": "[1]; from ITC binding free energy", "result": 0.52, "unit": "kcal/mol"},
      {"measurement": "Kd", "setting": "[2]", "result": "13 ± 1", "unit": "µM"},
      {"measurement": "-TΔS", "setting": "[2]; ITC, 25 °C", "result": "-3.0 ± 0.4", "unit": "kcal/mol"},
      {"measurement": "n", "setting": "[2]; ITC, 25 °C", "result": "0.92 ± 0.1"},
      {"measurement": "ΔH", "setting": "[2]; ITC, 25 °C", "result": "-3.6 ± 0.3", "unit": "kcal/mol"}
    ]}
  ]
}
